Experimental data from patent US10752587B2, “Homobispiperidinyl derivatives as liver X receptor beta agonists, compositions and their use” (Merck Sharp & Dohme Corp., priority 2015, dated 2020).
Where two headings read alike, the source gives them in different places.

Legend:
[1] = molecular target: T1, glutathione-S-transferase (GST) tagged LXRbeta LBD (ligand binding domain) (Homo sapiens, UniProt P55055); assay: LanthaScreen TR-FRET Liver X Receptor Coactivator Assay, co-activator recruitment to LXRbeta LBD; assay type: biochemical
T1 construct: purchased Invitrogen pv4658.pps
T1 sequence (P55055 222-460 limits assumed): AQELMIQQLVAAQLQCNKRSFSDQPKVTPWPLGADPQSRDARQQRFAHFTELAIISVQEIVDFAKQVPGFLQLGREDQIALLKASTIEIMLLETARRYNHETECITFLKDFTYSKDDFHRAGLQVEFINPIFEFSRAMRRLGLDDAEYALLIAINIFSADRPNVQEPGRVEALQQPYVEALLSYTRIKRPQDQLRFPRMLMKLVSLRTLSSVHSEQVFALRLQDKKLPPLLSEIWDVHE
Summary of the method: (§1)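 Compound-induced coactivator recruitment by the GST-fused ligand binding domain, detected as TR-FRET between Tb-labelled anti-GST antibody and fluorescein-tagged coactivator peptide after room-temperature incubation. IP and Emax expressed versus T0901317 as reference agonist.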

[2] = molecular target: T2, glutathione-S-transferase (GST) tagged LXRalpha LBD (ligand binding domain) (Homo sapiens, UniProt Q13133); assay: LanthaScreen TR-FRET Liver X Receptor Coactivator Assay, co-activator recruitment to LXRalpha LBD; assay type: biochemical
T2 construct: purchased Invitrogen pv4655
T2 sequence (Q13133 209-447 limits assumed): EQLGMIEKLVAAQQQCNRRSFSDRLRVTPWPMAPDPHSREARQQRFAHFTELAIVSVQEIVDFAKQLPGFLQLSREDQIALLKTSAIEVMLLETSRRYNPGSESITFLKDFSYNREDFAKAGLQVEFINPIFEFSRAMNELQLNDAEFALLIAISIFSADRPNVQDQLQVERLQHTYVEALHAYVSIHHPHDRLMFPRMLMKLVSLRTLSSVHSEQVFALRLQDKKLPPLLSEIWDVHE
Summary of the method: as §1

[3] = efficacy at max dose, in relation to reference dual agonist T0901317, read-out: LXR beta Activity @ max dose (%)
[4] = potency (Inflection Point, IP), co-activator recruitment to LXRbeta LBD, in relation to T0901317, read-out: LXR beta IP
[5] = efficacy at max dose, in relation to reference dual agonist T0901317, read-out: LXR alpha Activity @ max dose (%)
[6] = potency (Inflection Point, IP), co-activator recruitment to LXRalpha LBD, in relation to T0901317, read-out: LXR alpha IP
[7] = potency (Inflection Point, IP), co-activator recruitment to LXRalpha LBD, in relation to T0901317
[8] = co-activator recruitment to GST-LXRbeta LBD, TR-FRET, read-out: LXR beta IP (Inflection Point, potency)
[9] = efficacy in relation to reference dual agonist T0901317, read-out: LXR beta Activity @ max dose
[10] = co-activator recruitment to GST-LXRalpha LBD, TR-FRET, read-out: LXR alpha IP (Inflection Point, potency)
[11] = efficacy in relation to reference dual agonist T0901317, read-out: LXR alpha Activity @ max dose

Compound | Emax [1, 3] [%] | EC50 [1, 4] [nM] | Emax [2, 5] [%] | EC50 [2, 6] [nM] | LXR alpha IP (nM) [2, 7] | EC50 [1, 8] [nM] | Emax [1, 9] [%] | EC50 [2, 10] [nM] | Emax [2, 11] [%] | Emax ([1]; read-out: LXR beta Activity @ max dose) [%] | Emax ([2]; read-out: LXR alpha Activity @ max dose) [%]
CN(C)C(=O)c1ccc(N2CCC(CC3CCN(C(=O)[C@](O)(c4cccc(O)c4)C(F)(F)F)CC3)CC2)cc1Cl [Example 2-87, 2-chloro-N,N-dimethyl-4-[4-({1-[(2R)-3,3,3-trifluoro-2-hydroxy-2-(3-hydroxyphenyl)propanoyl]piperidin-4-yl}methyl)piperidin-1-yl]benzamide] | 74 | 19 | 14 | – | NO IP | – | – | – | – | – | –
CN(Cc1ccon1)C(=O)c1ccc(N2CCC(CC3CCN(C(=O)[C@](O)(c4ccccc4)C(F)(F)F)CC3)CC2)cc1Cl [Example 4-10, 2-chloro-N-(isoxazol-3-ylmethyl)-N-methyl-4-[4-({1-[(2R)-3,3,3-trifluoro-2-hydroxy-2-phenylpropanoyl]piperidin-4-yl}methyl)piperidin-1-yl]benzamide] | 62 | 8 | 30 | 246 | – | – | – | – | – | – | –
CCc1cccc([C@@](O)(C(=O)N2CCC(CC3CCN(c4ccc(C(=O)N(C)C)c(C)c4)CC3)CC2)C(F)(F)F)c1 [Example 2-156, 4-[4-({1-[(2R)-2-(3-ethyl-phenyl)-3,3,3-trifluoro-2-hydroxy-propanoyl]piperidin-4-yl}methyl)piperidin-1-yl]-N,N,2-trimethyl-benzamide] | 42 | 21 | 12 | – | NO IP | – | – | – | – | – | –
COc1cccc([C@@](O)(C(=O)N2CCC(CC3CCN(c4ccc(C(=O)N(C)C)c(Cl)c4)CC3)C2)C(F)(F)F)c1 (stereo partly drawn) [Example 2-72, 2-chloro-N,N-dimethyl-4-[4-({1-[(2R)-3,3,3-trifluoro-2-hydroxy-2-(3-methoxy-phenyl)propanoyl]pyrrolidin-3-yl}methyl)piperidin-1-yl]benzamide] | 39 | 74 | 0 | – | NO IP | – | – | – | – | – | –
CN(C)C(=O)c1ccc(N2CCC(CC3CN(S(=O)(=O)c4ccccc4)C3)CC2)cc1Cl [Example 13-1, 2-chloro-N,N-dimethyl-4-(4-((1-(phenylsulfonyl)azetidin-3-yl)methyl)piperidin-1-yl)benzamide] | – | – | – | – | – | 61 | – | 2480 | – | 73 | 37
O=C(c1ccc(N2CCC(CC3CCN(C(=O)[C@](O)(c4ccccc4)C(F)(F)F)CC3)CC2)cc1Cl)N1CCC(c2ccncc2)C1 (stereo partly drawn) [Example 4-17, (2R)-3-{4-[(1-{3-chloro-4-[(3-pyridin-4-ylpyrrolidin-1-yl)carbonyl]phenyl}piperidin-4-yl)methyl]piperidin-1-yl}-1,1,1-trifluoro-3-oxo-2-phenylpropan-2-ol] | 45 | 270 | 27 | 1020 | – | – | – | – | – | – | –
CCOc1cccc([C@@](O)(C(=O)N2CCC(CC3CCN(c4ccc(C(=O)N(C)C)c(Cl)c4)CC3)CC2)C(F)F)c1 [Example 2-108, 2-chloro-4-[4-({1-[(2R)-2-(3-ethoxy-phenyl)-3,3-difluoro-2-hydroxy-propanoyl]piperidin-4-yl}methyl)piperidin-1-yl]-N,N-dimethyl-benzamide] | 10 | 33 | 0 | – | NO IP | – | – | – | – | – | –

The next lines start with results.

Emax [1, 3] [%] | EC50 [1, 4] [nM] | Emax [2, 5] [%] | EC50 [2, 6] [nM] | LXR alpha IP (nM) [2, 7] | EC50 [1, 8] [nM] | Emax [1, 9] [%] | EC50 [2, 10] [nM] | Emax [2, 11] [%] | Compound | Emax ([1]; read-out: LXR beta Activity @ max dose) [%] | Emax ([2]; read-out: LXR alpha Activity @ max dose) [%]
113 | 4 | 49 | 291 | – | – | – | – | – | CN(C)C(=O)c1ccc(N2CCC(CC3CN(C(=O)[C@](O)(c4cc(F)cc(Cl)c4)C(F)(F)F)C3)CC2)nc1Cl [Example 7-40, 2-chloro-6-[4-({1-[(2R)-2-(3-chloro-5-fluorophenyl)-3,3,3-trifluoro-2-hydroxypropanoyl]azetidin-3-yl}methyl)piperidin-1-yl]-N,N-dimethylpyridine-3-carboxamide] | – | –
108 | 83 | 48 | 1590 | – | – | – | – | – | CN(C)C(=O)c1ccc(N2CCC(CC3CCN(C(=O)C(O)(c4cccnc4)C(F)(F)F)CC3)CC2)nc1Cl (stereo not shown) [Example 7-66, 2-chloro-N,N-dimethyl-6-(4-{[1-(3,3,3-trifuoro-2-hydroxy-2-pyridin-3-ylpropanoyl)piperidin-4-yl]methyl}piperidin-1-yl)pyridine-3-carboxamide] | – | –
70 | 12 | 3 | – | NO IP | – | – | – | – | Cc1nc(N2CCC(CC3CCN(C(=O)[C@](O)(c4cc(Cl)cc(Cl)c4)C(F)(F)F)CC3)CC2)ccc1C(=O)N(C)C [Example 7-9, 6-[4-({1-[(2R)-2-(3,5-dichlorophenyl)-3,3,3-trifluoro-2-hydroxypropanoyl]piperidin-4-yl}methyl)piperidin-1-yl]-N,N,2-trimethylpyridine-3-carboxamide] | – | –
– | – | – | – | – | 497 | 58 | 2730 | 24 | CN(C)C(=O)c1ccc(N2CCC(CC3CCN(S(=O)(=O)c4ccc(F)cc4)CC3)CC2)cc1Cl [Example 13-14, 2-chloro-4-[4-({1-[(4-fluorophenyl)sulfonyl]-piperidin-4-yl}methyl)-piperidin-1-yl]-N,N-dimethylbenzamide] | – | –
72 | 1150 | 4 | – | NO IP | – | – | – | – | COc1cccc([C@@](O)(C(=O)N2CCC(CC3CN(c4ccc(C(=O)N(C)C)c(C)n4)C3)CC2)C(F)(F)F)c1 [Example 7-13, N,N,2-trimethyl-6-[3-({1-[(2R)-3,3,3-trifluoro-2-hydroxy-2-(3-methoxyphenyl)propanoyl]piperidin-4-yl}methyl)azetidin-1-yl]pyridine-3-carboxamide] | – | –
51 | 206 | 19 | – | NO IP | – | – | – | – | CN(C)C(=O)c1ccc(N2CCC(CC3CCN(C(=O)C(F)(F)c4cccc(Cl)c4)CC3)CC2)nc1Cl [Example 7-81, 2-chloro-6-[4-({1-[(3-chlorophenyl) (difluoro)acetyl]piperidin-4-yl}methyl)piperidin-1-yl]-N,N-dimethylpyridine-3-carboxamide] | – | –
61 | 7 | 3 | – | NO IP | – | – | – | – | COc1cccc([C@@](O)(C(=O)N2CCC(CC3CCN(c4ccc(C(=O)N(C)C)c(OC)n4)CC3)CC2)C(F)(F)F)c1 [Example 7-19, 2-methoxy-N,N-dimethyl-6-[4-({1-[(2R)-3,3,3-trifluoro-2-hydroxy-2-(3-methoxyphenyl)propanoyl]piperidin-4-yl}methyl)piperidin-1-yl]pyridine-3-carboxamide] | – | –
54 | 118 | 10 | – | NO IP | – | – | – | – | CN(C)C(=O)c1ccc(N2CCC(CC3CCN(C(=O)[C@@](N)(c4ccccc4)C(F)(F)F)CC3)CC2)nc1Cl [Example 7-110, 6-[4-({1-[(2S)-2-amino-3,3,3-trifluoro-2-phenylpropanoyl]piperidin-4-yl}methyl)piperidin-1-yl]-2-chloro-N,N-dimethylpyridine-3-carboxamide] | – | –
– | – | – | – | – | 43 | 95 | 935 | 46 | CN(C)C(=O)c1ccc(N2CCC(CC3CCN(S(=O)(=O)c4ccccc4F)CC3)CC2)cc1Cl [Example 13-8, 2-chloro-4-[4-({1-[(2-fluorophenyl)sulfonyl]-piperidin-4-yl}methyl)-piperidin-1-yl]-N,N-dimethylbenzamide] | – | –
